The values that follow are results of earlier work, collected in patent US20190352262A1, “New Pleuromutilin Antibiotic Compounds, Compositions and Methods of Use and Synthesis” (YALE UNIVERSITY, priority 2017, published 2019).

This series deals with Gram-positive bacteria. The note with it: background statement, no data of the applicant.

“Also recorded” adds a separate entry of the source.

In the case of `C=C[C@]1(C)C[C@@H](OC(=O)CO)[C@@]2(C)C3C(=O)CC[C@@]3(CC[C@H]2C)[C@H](C)C1O` (single isomer, unassigned; (+)) [(+)-Pleuromutilin, (+)-pleuromutilin], the “antibacterial activity (growth inhibition of Gram-positive bacteria)” value is given as “inhibit the growth”.

For `C=C[C@]1(C)C[C@@H](O)[C@]2(C)[C@H](C)CC[C@]3(CCC(=O)[C@H]32)[C@@H](C)[C@@H]1O` [(+)-mutilin], the “antibacterial activity (growth inhibition of Gram-positive bacteria)” value was “not active; also recorded: largely inactive”.
